Activity calls are given as the source filed them. How the calls were made is not given here.
Test system: CCRIS mutagenicity, Ames/micronucleus/aberration tests
Experiment: CCRIS mutagenicity studies
[1] = Test System: AMES SALMONELLA TYPHIMURIUM, Strain/Indicator: TA98, Metabolic Activation: NONE, Method: PREINCUBATION
[2] = Test System: AMES SALMONELLA TYPHIMURIUM, Strain/Indicator: TA100, Metabolic Activation: NONE, Method: PREINCUBATION

For `c1cc2ccc3cccc4ccc(c1)c2c34`, the mutagenic call (End Point: IN VITRO MICRONUCLEUS, Test System: CHO CELLS, Metabolic Activation: RAT, LIVER, S-9, AROCLOR 1254) was “inactive; negative”, the mutagenic call (End Point: IN VITRO MICRONUCLEUS, Test System: V79 CELLS, Metabolic Activation: NONE) was “inactive; negative” and the mutagenic call (Test System: AMES SALMONELLA TYPHIMURIUM, Strain/Indicator: TA97, Metabolic Activation: NONE, Method: STANDARD PLATE) was “inactive; negative”. The mutagenic call (Test System: AMES SALMONELLA TYPHIMURIUM, Strain/Indicator: TA97, Metabolic Activation: RAT, LIVER, S-9, AROCLOR 1254, Method: STANDARD PLATE) was “active; positive”, the mutagenic call (Test System: AMES SALMONELLA TYPHIMURIUM, Strain/Indicator: TA97, Metabolic Activation: RAT, LIVER, S-9, PCB, Method: STANDARD PLATE) was “active; positive” and the mutagenic call (Test System: AMES SALMONELLA TYPHIMURIUM, Strain/Indicator: TA97A, Metabolic Activation: RAT, LIVER, S-9, AROCLOR 1254, Method: STANDARD PLATE) was “active; positive”. For the same molecule, the mutagenic call [1] was “inactive; negative”, the mutagenic call (Test System: AMES SALMONELLA TYPHIMURIUM, Strain/Indicator: TA98, Metabolic Activation: NONE, Method: STANDARD PLATE) was “inactive; negative” and the mutagenic call (Test System: AMES SALMONELLA TYPHIMURIUM, Strain/Indicator: TA98, Metabolic Activation: RAT, LIVER, S-9, AROCLOR 1254, Method: PREINCUBATION) was “inactive; negative”. For the same molecule, the mutagenic call (Test System: AMES SALMONELLA TYPHIMURIUM, Strain/Indicator: TA98, Metabolic Activation: RAT, LIVER, S-9, AROCLOR 1254, Method: STANDARD PLATE) was “inactive; negative”, the mutagenic call (Test System: AMES SALMONELLA TYPHIMURIUM, Strain/Indicator: TA98, Metabolic Activation: RAT, LIVER, S-9, PCB, Method: STANDARD PLATE) was “active; positive” and the mutagenic call (Test System: AMES SALMONELLA TYPHIMURIUM, Strain/Indicator: TA100, Metabolic Activation: MOUSE, LIVER, MICROSOMES, BENZO[E]PYRENE AND TCDD, Method: STANDARD PLATE) was “inactive; negative”. The mutagenic call [2] was “inactive; negative”, the mutagenic call (Test System: AMES SALMONELLA TYPHIMURIUM, Strain/Indicator: TA100, Metabolic Activation: NONE, Method: STANDARD PLATE) was “inactive; negative” and the mutagenic call (Test System: AMES SALMONELLA TYPHIMURIUM, Strain/Indicator: TA100, Metabolic Activation: RAT, LIVER, S-9, AROCLOR 1254, Method: PREINCUBATION) was “inactive; negative”. For the same molecule, the mutagenic call (Test System: AMES SALMONELLA TYPHIMURIUM, Strain/Indicator: TA100, Metabolic Activation: RAT, LIVER, S-9, PCB, Method: STANDARD PLATE) was “inactive; negative”, the mutagenic call (Test System: AMES SALMONELLA TYPHIMURIUM, Strain/Indicator: TA1537, Metabolic Activation: RAT, LIVER, S-9, AROCLOR 1254, Method: STANDARD PLATE) was “active; positive” and the mutagenic call (Test System: CHINESE HAMSTER OVARY, Strain/Indicator: CHO (HGPRT)/6-THIOGUANINE, Metabolic Activation: NONE, Method: STANDARD PLATE) was “inactive; negative”. For the same molecule, the mutagenic call (Test System: CHINESE HAMSTER OVARY, Strain/Indicator: CHO (HGPRT)/6-THIOGUANINE, Metabolic Activation: RAT, LIVER, S-9, AROCLOR 1254, Method: STANDARD PLATE) was “inactive; negative”, the mutagenic call (Test System: CHINESE HAMSTER OVARY, Strain/Indicator: CHO-K1-BH4 (HGPRT)/6-THIOGUANINE, Metabolic Activation: NONE, Method: SUSPENSION/PLATE) was “inactive; negative” and the mutagenic call (Test System: CHINESE HAMSTER OVARY, Strain/Indicator: CHO-K1-BH4 (HGPRT)/6-THIOGUANINE, Metabolic Activation: S-9, Method: SUSPENSION/PLATE) was “inactive; negative”. The mutagenic call (Test System: CHINESE HAMSTER OVARY, Strain/Indicator: CHO-K1-BH4 (HGPRT), Metabolic Activation: NONE, Method: SUSPENSION/PLATE) was “inactive; negative”, the mutagenic call (Test System: CHINESE HAMSTER OVARY, Strain/Indicator: CHO-K1-BH4 (HGPRT), Metabolic Activation: RAT, LIVER, S-9, AROCLOR, Method: SUSPENSION/PLATE) was “inactive; negative” and the mutagenic call (Test System: E. COLI, Strain/Indicator: WP2 UVRA, Metabolic Activation: HAMSTER, LIVER, S-9, AROCLOR 1254, Method: STANDARD PLATE) was “inactive; negative”. For the same molecule, the mutagenic call (Test System: E. COLI, Strain/Indicator: WP2 UVRA, Metabolic Activation: HAMSTER, LIVER, S-9, Method: STANDARD PLATE) was “inactive; negative”, the mutagenic call (Test System: E. COLI, Strain/Indicator: WP2 UVRA, Metabolic Activation: MOUSE, LIVER, S-9, AROCLOR 1254, Method: STANDARD PLATE) was “inactive; negative” and the mutagenic call (Test System: E. COLI, Strain/Indicator: WP2 UVRA, Metabolic Activation: MOUSE, LIVER, S-9, Method: STANDARD PLATE) was “inactive; negative”. For the same molecule, the mutagenic call (Test System: E. COLI, Strain/Indicator: WP2 UVRA, Metabolic Activation: NONE, Method: STANDARD PLATE) was “inactive; negative”, the mutagenic call (Test System: E. COLI, Strain/Indicator: WP2 UVRA, Metabolic Activation: RAT, LIVER, S-9, AROCLOR 1254, Method: STANDARD PLATE) was “inactive; negative” and the mutagenic call (Test System: E. COLI, Strain/Indicator: WP2 UVRA, Metabolic Activation: RAT, LIVER, S-9, Method: STANDARD PLATE) was “inactive; negative”. The mutagenic call (Test System: MOUSE LYMPHOMA, Strain/Indicator: L5178Y (TK+/TK-), Metabolic Activation: NONE, Method: SUSPENSION/PLATE) was “inactive; negative”, the mutagenic call (Test System: MOUSE LYMPHOMA, Strain/Indicator: L5178Y (TK+/TK-), Metabolic Activation: RAT, LIVER, S-9, AROCLOR 1254, Method: SUSPENSION/PLATE) was “active; positive” and the mutagenic call (Test System: MOUSE LYMPHOMA, Strain/Indicator: L5178Y (TK+/TK-), Metabolic Activation: S-9, Method: SUSPENSION/PLATE) was “active; positive”. For the same molecule, the mutagenic call (Test System: UDS RAT HEPATOCYTES, Strain/Indicator: BROMODEOXYURIDINE INCORP, Metabolic Activation: NONE, Method: FLOW CYTOMETRIC ANALYSIS) was “inactive; negative”, the mutagenic call (Test System: UDS RAT HEPATOCYTES, Strain/Indicator: THY INCORP, Metabolic Activation: NONE, Method: AUTORADIOGRAPHY) was “inactive; negative” and the mutagenic call (Test System: UDS RODENT HEPATOCYTES, Strain/Indicator: THY INCORP, Metabolic Activation: NONE, Method: AUTORADIOGRAPHY) was “inactive; negative”. The mutagenic call (Test System: UDS, Strain/Indicator: HEPG2/THYMIDINE INCORPORATION, Metabolic Activation: NONE, Method: AUTORADIOGRAPHY) was “inactive; negative”.
With `O=C1C=C2C(=CCOC2O)O1` (stereo unspecified) the mutagenic call (End Point: In vitro micronucleus, Test System: Human hepatoma HepG2 cells, Metabolic Activation: None) was “active; positive. depletion of glutathione increased patulin-induced micronuclei frequen”, the mutagenic call (Test System: AMES SALMONELLA TYPHIMURIUM, Strain/Indicator: TA98, Metabolic Activation: RAT, LIVER, MICROSOMES, PHENOBARBITAL, Method: STANDARD PLATE) was “inactive; negative” and the mutagenic call [2] was “inactive; negative”. For the same molecule, the mutagenic call (Test System: AMES SALMONELLA TYPHIMURIUM, Strain/Indicator: TA100, Metabolic Activation: RAT, LIVER, MICROSOMES, PHENOBARBITAL, Method: STANDARD PLATE) was “inactive; negative”, the mutagenic call (Test System: AMES SALMONELLA TYPHIMURIUM, Strain/Indicator: TA100, Metabolic Activation: RAT, LIVER, S-9, PHENOBARBITAL, Method: PREINCUBATION) was “inactive; negative” and the mutagenic call (Test System: AMES SALMONELLA TYPHIMURIUM, Strain/Indicator: TA102, Metabolic Activation: NONE, Method: STANDARD PLATE) was “inactive; negative”. For the same molecule, the mutagenic call (Test System: AMES SALMONELLA TYPHIMURIUM, Strain/Indicator: TA102, Metabolic Activation: RAT, LIVER, S-9, AROCLOR 1254, Method: STANDARD PLATE) was “inactive; negative”.
For `O=S(=O)(O)c1ccc(O)c2ncccc12`, the mutagenic call [1] was “inactive; negative”, the mutagenic call (Test System: AMES SALMONELLA TYPHIMURIUM, Strain/Indicator: TA98, Metabolic Activation: RAT, LIVER, S-9, Method: PREINCUBATION) was “active; positive” and the mutagenic call [2] was “inactive; negative”. For the same molecule, the mutagenic call (Test System: AMES SALMONELLA TYPHIMURIUM, Strain/Indicator: TA100, Metabolic Activation: RAT, LIVER, S-9, Method: PREINCUBATION) was “active; positive”.
For `Nc1ccc(-c2cc([N+](=O)[O-])c(N)c(Cl)c2Cl)cc1`, the mutagenic call (Test System: Ames Salmonella typhimurium, Strain/Indicator: TA98, Metabolic Activation: None, Method: Preincubation) was “active; positive. weak response”, the mutagenic call (Test System: Ames Salmonella typhimurium, Strain/Indicator: TA98, Metabolic Activation: Rat, Liver, S-9, Phenobarbital and 5,6-benzoflavone, Method: Preincubation) was “active; positive” and the mutagenic call (Test System: Ames Salmonella typhimurium, Strain/Indicator: TA100, Metabolic Activation: None, Method: Preincubation) was “inactive; negative”. For the same molecule, the mutagenic call (Test System: Ames Salmonella typhimurium, Strain/Indicator: TA100, Metabolic Activation: Rat, Liver, S-9, Phenobarbital and 5,6-benzoflavone, Method: Preincubation) was “active; positive”, the mutagenic call (Test System: Ames Salmonella typhimurium, Strain/Indicator: YG1024, Metabolic Activation: None, Method: Preincubation) was “active; positive” and the mutagenic call (Test System: Ames Salmonella typhimurium, Strain/Indicator: YG1024, Metabolic Activation: Rat, Liver, S-9, Phenobarbital and 5,6-benzoflavone, Method: Preincubation) was “active; positive”. For the same molecule, the mutagenic call (Test System: Ames Salmonella typhimurium, Strain/Indicator: YG1029, Metabolic Activation: None, Method: Preincubation) was “inactive; negative” and the mutagenic call (Test System: Ames Salmonella typhimurium, Strain/Indicator: YG1029, Metabolic Activation: Rat, Liver, S-9, Phenobarbital and 5,6-benzoflavone, Method: Preincubation) was “active; positive”.

— PubChem BioAssay AID1259407 (Chemical Carcinogenesis Research Information System (CCRIS), 2018)
